Experimental data from the NIST ThermoML archive (doi:10.1016/j.fluid.2005.06.019).

Experiments:
[1] = Liquid; for mass density: 101.33 kPa
[2] = refractive index (Na D-line) (dimensionless); conditions: 298.15 K; 101.33 kPa; Liquid; Standard Abbe refractometry

CC(C)CO [2-methyl-1-propanol]
[1]
Conditions | mass density [kg/m3] | vapor or sublimation pressure [kPa]
298.15 K | 797.83 | –
381.09 K | – | 101.3

Conditions | refractive index
[2] | 1.3937

CCCCCCO [hexan-1-ol]
[1]
Conditions | mass density [kg/m3] | vapor or sublimation pressure [kPa]
298.15 K | 814.85 | –
356.39 K | – | 5
364.42 K | – | 7.5
368.04 K | – | 8.9
372.23 K | – | 10.9
376.68 K | – | 13.4
379.61 K | – | 15.3
384.92 K | – | 19.3
384.93 K | – | 19.3
390.31 K | – | 24.2
394.34 K | – | 28.5
398.14 K | – | 33.1
401.57 K | – | 37.8
404.56 K | – | 42.3
407.43 K | – | 47.1
410.27 K | – | 52.2
412.75 K | – | 57
414.93 K | – | 61.5
417.18 K | – | 66.4
417.28 K | – | 66.7
419.52 K | – | 71.9
421.96 K | – | 78
424.54 K | – | 84.8
426.31 K | – | 89.8
428.2 K | – | 95.3
429.97 K | – | 100.8
430 K | – | 101.5
430.06 K | – | 101.3
430.26 K | – | 101.7

Conditions | refractive index
[2] | 1.4162

CC(=O)OCC(C)C [2-methylpropyl ethanoate]
[1]
Conditions | mass density [kg/m3] | vapor or sublimation pressure [kPa]
293.15 K | 866.12 | –
389.9 K | – | 101.3

Conditions | refractive index
[2] | 1.3876
